Results: patent publication US20250034135A1, “ANTI-APOPTOTIC PROTEIN BCL-2 INHIBITOR, PHARMACEUTICAL COMPOSITION AND USES THEREOF” (HANGZHOU HEALZEN THERAPEUTICS CO., LTD., priority 2021, published 2025)
pIC50: −log10 of the molar value.

target: BCL2 (Homo sapiens (Human), UniProt P10415); assay: Molecular level activity test of anti-apoptotic protein BCL2 (HTRF, binding to Bim peptide); details: HTRF, binding of BCL2 to Bim peptide; read-out: BCL2 nM (inhibitory activity, IC50)
Summary of the method: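 HTRF binding of His-tagged recombinant BCL2 to biotin-tagged Bim peptide, compound in 2% DMSO. After 1 h reaction, anti-His and streptavidin-XL665 detection reagents were added and incubated 4 h at room temperature before reading.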

Sequence of BCL2 (P10415 whole entry): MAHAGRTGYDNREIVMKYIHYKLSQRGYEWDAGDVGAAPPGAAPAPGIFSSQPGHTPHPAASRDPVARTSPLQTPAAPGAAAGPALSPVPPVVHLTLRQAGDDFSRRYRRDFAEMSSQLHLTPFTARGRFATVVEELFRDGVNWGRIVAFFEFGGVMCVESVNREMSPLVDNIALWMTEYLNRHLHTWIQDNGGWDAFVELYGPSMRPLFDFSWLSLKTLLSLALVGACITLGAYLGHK

pIC50, > 8.00:
CC(=O)N1CCC(F)(CNc2c([N+](=O)[O-])cc(S(=O)(=O)NC(=O)c3cnc(N4CCC5(CC4)CC(N4CCC[C@H]4c4ccccc4C(C)C)C5)cc3Oc3cnc4[nH]ccc4c3)c3nc[nH]c23)CC1 [compound 027, (S)-4-((1H-pyrrolo[2,3-b]pyrid-5-yl)oxy)-N-((7-(((1-acetyl-4-fluoropiperid-4-yl)methyl)amino)-6-nitro-1H-benzo[d]imidazol-4-yl)sulfonyl)-6-(2-(2-(2-isopropylphenyl)pyrrolidin-1-yl)-7-azaspiro[3.5]non-7-yl) nicotinamide]
CC(C)c1ccccc1[C@@H]1CCCN1C1CC2(CCN(c3cc(Oc4cnc5[nH]ccc5c4)c(C(=O)NS(=O)(=O)c4cc([N+](=O)[O-])c(NC[C@H]5CC[C@](C)(O)CC5)c5scnc45)cc3F)CC2)C1 [compound 098, 2-((1H-pyrrolo[2,3-b]pyrid-5-yl)oxy)-5-fluoro-N-((7-((((1r, 4r)-4-hydroxy-4-methylcyclohexyl)methyl)amino)-6-nitrobenzo[d]thiazol-4-yl)sulfonyl)-4-(2-((S)-2-(2-isopropylphenyl)pyrrolidin-1-yl)-7-azaspiro[3.5]non-7-yl)benzamide]
CC(C)c1ccccc1[C@@H]1CCCN1C1CC2(CCN(c3cc(Oc4cnc5[nH]ccc5c4)c(C(=O)NS(=O)(=O)c4cc([N+](=O)[O-])c(NCC5(F)CCOCC5)c5c4CCO5)cc3F)CC2)C1 [compound 105, (S)-2-((1H-pyrrolo[2,3-b]pyrid-5-yl)oxy)-5-fluoro-N-((7-(((4-fluorotetrahydro-2H-pyran-4-yl)methyl)amino)-6-nitro-2,3-dihydrobenzofuran-4-yl)sulfonyl)-4-(2-(2-(2-isopropylphenyl)pyrrolidin-1-yl)-7-azaspiro[3.5]non-7-yl)benzamide]
COc1ccc(CN2CCN(C3CC4(CCN(c5ccc(C(=O)NS(=O)(=O)c6cc([N+](=O)[O-])c(NCC7(F)CCOCC7)c7[nH]cnc67)c(N6CCCOc7nc8[nH]ccc8cc76)c5)CC4)C3)C(c3ccccc3C(C)C)C2)cc1 (stereo not shown) [compound 094, 2-(3,4-dihydro-2H-pyrrolo[3′,2′:5,6]pyridino[2,3-b][1,4]oxazacycloheptane-1 (7H)-yl)-N-((7-(((4-fluorotetrahydro-2H-pyran-4-yl)methyl)amino)-6-nitro-1H-benzo[d]imidazol-4-yl)sulfonyl)-4-(2-(2-(2-isopropylphenyl)-4-(4-methoxybenzyl)piperazin-1-yl)-7-azaspiro[3.5]non-7-yl)benzamide]
CC(C)c1ccccc1[C@@H]1CN(Cc2cccc(F)c2F)CCN1C1CC2(CCN(c3cc(Oc4cnc5[nH]ccc5c4)c(C(=O)NS(=O)(=O)c4ccc(NC[C@H]5CC[C@](C)(O)CC5)c([N+](=O)[O-])c4)cc3F)CC2)C1 [compound 218, 2-((1H-pyrrolo[2,3-b]pyrid-5-yl)oxy)-4-(2-((R)-4-(2,3-difluorobenzyl)-2-(2-isopropylphenyl)piperazin-1-yl)-7-azaspiro[3.5]non-7-yl)-5-fluoro-N-((4-((((1r, 4r)-4-hydroxy-4-methylcyclohexyl)methyl)amino)-3-nitrophenyl)sulfonyl)benzamide]
CC(C)c1ccccc1C1CN(C2CCOCC2)CCN1C1CC2(C1)CN(c1ccc(C(=O)NS(=O)(=O)c3cc([N+](=O)[O-])c(NCC4(F)CCN(C(C)C)CC4)c4[nH]cnc34)c(Oc3cnc4[nH]ccc4c3)c1)C2 (stereo not shown) [compound 044, 2-((1H-pyrrolo[2,3-b]pyrid-5-yl)oxy)-N-((7-(((4-fluoro-1-isopropylpiperid-4-yl)methyl)amino)-6-nitro-1H-benzo[d]imidazol-4-yl)sulfonyl)-4-(6-(2-(2-isopropylphenyl)-4-(tetrahydro-2H-pyran-4-yl)piperazin-1-yl)-2-azaspiro[3.3]hept-2-yl)benzamide]
COc1ccc(CN2CCN(C3CC4(CCN(c5cc(Oc6cnc7[nH]ccc7c6)c(C(=O)NS(=O)(=O)c6cc([N+](=O)[O-])c(NCC7(F)CCOCC7)c7c6OCO7)cc5F)CC4)C3)[C@H](c3ccccc3C(C)C)C2)c(F)n1 [compound 130, (R)-2-((1H-pyrrolo[2,3-b]pyrid-5-yl)oxy)-5-fluoro-4-(2-(4-((2-fluoro-6-methoxypyrid-3-yl)methyl)-2-(2-isopropylphenyl)piperazin-1-yl)-7-azaspiro[3.5]non-7-yl)-N-((7-(((4-fluorotetrahydro-2H-pyran-4-yl)methyl)amino)-6-nitrobenzo[d][1,3]dioxocyclopent-4-yl)sulfonyl)benzamide]
CC(C)c1ccccc1[C@@H]1CCCN1C1CC2(CCN(c3cc(N4CCOc5nc6[nH]ccc6cc54)c(C(=O)NS(=O)(=O)c4cc([N+](=O)[O-])c(NC[C@H]5CC[C@](C)(O)CC5)c5[nH]cnc45)cc3F)CC2)C1 [compound 082, 2-(2,3-dihydropyrrolo[3′,2′:5,6]pyridino[2,3-b][1,4]oxazin-1 (6H)-yl)-5-fluoro-N-((7-((((1r,4r)-4-hydroxy-4-methylcyclohexyl)methyl)amino)-6-nitro-1H-benzo[d]imidazol-4-yl)sulfonyl)-4-(2-((S)-2-(2-isopropylphenyl)pyrrolidin-1-yl)-7-azaspiro[3.5]non-7-yl)benzamide]
COc1ccc(CN2CCN(C3CC4(CCN(c5cc(Oc6cnc7[nH]ccc7c6)c(C(=O)NS(=O)(=O)c6cc([N+](=O)[O-])c(NCC7(F)CCOCC7)c7c6OCCO7)cn5)CC4)C3)[C@H](c3ccccc3C(C)C)C2)cc1 [compound 136, (R)-4-((1H-pyrrolo[2,3-b]pyrid-5-yl)oxy)-N-((8-(((4-fluorotetrahydro-2H-pyran-4-yl)methyl)amino)-7-nitro-2,3-dihydrobenzo[b][1,4]dioxan-5-yl)sulfonyl)-6-(2-(2-(2-isopropylphenyl)-4-(4-methoxybenzyl)piperazin-1-yl)-7-azaspiro[3.5]non-7-yl) nicotinamide]
CC(C)c1ccccc1[C@@H]1CCCN1C1CC2(CCN(c3cc(Oc4cnc5[nH]ccc5c4)c(C(=O)NS(=O)(=O)c4cc([N+](=O)[O-])c(NC[C@H]5COCCO5)c5c4OCO5)cc3F)CC2)C1 [compound 157, N-((7-((((S)-1,4-dioxan-2-yl)methyl)amino)-6-nitrobenzo[d][1,3]dioxocyclopent-4-yl)sulfonyl)-2-((1H-pyrrolo[2,3-b]pyrid-5-yl)oxy)-5-fluoro-4-(2-((S)-2-(2-isopropylphenyl)pyrrolidin-1-yl)-7-azaspiro[3.5]non-7-yl)benzamide]
COc1ccc(CN2CCN(C3CC4(CCN(c5ccc(C(=O)NS(=O)(=O)c6cc([N+](=O)[O-])c(NCC7(F)CCOCC7)c7c6OCO7)c(Oc6cnc7[nH]ccc7c6)c5)CC4)C3)[C@H](c3ccccc3C(C)C)C2)cc1 [compound 147, (R)-2-((1H-pyrrolo[2,3-b]pyrid-5-yl)oxy)-N-((7-(((4-fluorotetrahydro-2H-pyran-4-yl)methyl)amino)-6-nitrobenzo[d][1,3]dioxocyclopent-4-yl)sulfonyl)-4-(2-(2-(2-isopropylphenyl)-4-(4-methoxybenzyl)piperazin-1-yl)-7-azaspiro[3.5]non-7-yl)benzamide]
CC(C)c1ccccc1[C@@H]1CCCN1C1CC2(CCN(c3cc(Oc4cnc5[nH]ccc5c4)c(C(=O)NS(=O)(=O)c4cc([N+](=O)[O-])c(NCC5CCC(N(C)C)CC5)c5[nH]cnc45)cc3F)CC2)C1 (stereo partly drawn) [compound 034, 2-((1H-pyrrolo[2,3-b]pyrid-5-yl)oxy)-N-((7-((((1S,4S)-4-(dimethylamino)cyclohexyl)methyl)amino)-6-nitro-1H-benzo[d]imidazol-4-yl)sulfonyl)-5-fluoro-4-(2-((S)-2-(2-isopropylphenyl)pyrrolidin-1-yl)-7-azaspiro[3.5]non-7-yl)benzamide]
COc1ccc(CN2CCN(C3CC4(CCN(c5cc(Oc6cnc7[nH]ccc7c6)c(C(=O)NS(=O)(=O)c6cc([N+](=O)[O-])c(NCC7(F)CCOCC7)c7c6CCO7)cc5F)CC4)C3)[C@H](c3ccccc3C(C)C)C2)cc1 [compound 112, (R)-2-((1H-pyrrolo[2,3-b]pyrid-5-yl)oxy)-5-fluoro-N-((7-(((4-fluorotetrahydro-2H-pyran-4-yl)methyl)amino)-6-nitro-2,3-dihydrobenzofuran-4-yl)sulfonyl)-4-(2-(2-(2-isopropylphenyl)-4-(4-methoxybenzyl)piperazin-1-yl)-7-azaspiro[3.5]non-7-yl)benzamide]
COc1ccc(CN2CCN(C3CC4(CCN(c5cc(Oc6cnc7[nH]ccc7c6)c(C(=O)NS(=O)(=O)c6cc([N+](=O)[O-])c(NC[C@H]7CC[C@](C)(O)CC7)c7[nH]cnc67)cc5F)CC4)C3)C(c3ccccc3C(C)C)C2)cc1 (stereo partly shown) [compound 071, 2-((1H-pyrrolo[2,3-b]pyrid-5-yl)oxy)-5-fluoro-N-((7-((((1r,4r)-4-hydroxy-4-methylcyclohexyl)methyl)amino)-6-nitro-1H-benzo[d]imidazol-4-yl)sulfonyl)-4-(2-(2-(2-isopropylphenyl)-4-(4-methoxybenzyl)piperazin-1-yl)-7-azaspiro[3.5]non-7-yl)benzamide]
COc1ccc(CN2CCN(C3CC4(CCN(c5cc(Oc6cnc7[nH]ccc7c6)c(C(=O)NS(=O)(=O)c6cc([N+](=O)[O-])c(NCC7(F)CCOCC7)c7oc(C)cc67)cc5F)CC4)C3)[C@H](c3ccccc3C(C)C)C2)cc1 [compound 111, (R)-2-((1H-pyrrolo[2,3-b]pyrid-5-yl)oxy)-5-fluoro-N-((7-(((4-fluorotetrahydro-2H-pyran-4-yl)methyl)amino)-2-methyl-6-nitrobenzofuran-4-yl)sulfonyl)-4-(2-(2-(2-isopropylphenyl)-4-(4-methoxybenzyl)piperazin-1-yl)-7-azaspiro[3.5]non-7-yl)benzamide]
COc1ccc(CN2CCN(C3CC4(CCN(c5cc(Oc6cnc7[nH]ccc7c6)c(C(=O)NS(=O)(=O)c6cc([N+](=O)[O-])c(NC[C@H]7COCCO7)c7c6OCO7)cc5F)CC4)C3)[C@H](c3ccccc3C(C)C)C2)cc1 [compound 123]
